Measured values reported in patent publication US12544359B2, “1-aminosulfonyl-2-carboxypyrrole derivatives as metallo-beta-lactamase inhibitors” (INFEX Therapeutics Limited, priority 2019, dated 2026).
Structures can show the parent of a compound that is named as a salt.

What was measured:
NDM-1 = NDM-1 (Klebsiella pneumoniae, UniProt C7C422); test: metallo-β-lactamase inhibition assay (nitrocefin); type: biochemical; details: 1.5 nM NDM-1, 100 μM nitrocefin, 37° C., pH 7.5
Protocol: Compounds of the invention were tested in a metallo-β-lactamase inhibition assay to investigate mechanism of action of the compounds. Results are reported as the concentration of test article required to inhibit enzyme activity by 50% (IC50).
Inhibition of metallo-β-lactamase enzyme function was performed at 37° C. in buffer at pH 7.5 (50 mM HEPES, 150 mM NaCl, 0.1 mM ZnSO4, 20 μg/mL PEG4000), containing 1.5 nM NDM-1, 100 μM nitrocefin, and a range of concentrations of compound. Absorbance at 490 nm was measured using a BMG LABTECH FLUOstar Omega microplate reader every minute for 30 minutes. IC50s were determined from the average increase in OD per minute versus the Log 10 concentration of compound using GraphPad Prism.

[1] = Cytotoxicity Assay (CellTiter-Glo); type: cell-based; details: human, Hep G2 cells (ATCC HB-8065); 24 h exposure; read-out: HepG2 CC50
Protocol: Cytotoxicity was evaluated in human Hep G2 cells (ATCC HB-8065) seeded at a density of 2×10^5 cells per well and incubated for 24 h at 37° C., 5% CO2. Cells were exposed to a doubling dilution series of test article. After 24 h exposure, the viability of the cells was determined using CellTiter-Glo® (Promega, WI, USA) according to the manufacturer's instructions. Results are reported as the concentration of test article required to reduce cell viability by 50% (CC50).

NDM-1, sequence (C7C422 whole entry, looked up, species assumed): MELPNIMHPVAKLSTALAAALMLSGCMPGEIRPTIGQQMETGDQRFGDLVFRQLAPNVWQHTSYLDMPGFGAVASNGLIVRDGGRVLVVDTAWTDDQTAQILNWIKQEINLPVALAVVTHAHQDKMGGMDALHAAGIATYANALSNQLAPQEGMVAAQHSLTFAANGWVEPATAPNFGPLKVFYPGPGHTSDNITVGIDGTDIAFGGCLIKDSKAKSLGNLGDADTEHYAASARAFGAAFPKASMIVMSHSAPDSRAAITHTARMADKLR

| SMILES | IC50 (NDM-1) [nM] | CC50 at 24 h [1] [µg/mL] |
| --- | --- | --- |
| NS(=O)(=O)n1ccc(-c2ccc(C(=O)NC(CO)CO)cc2)c1C(=O)O [Example 12, 3-[4-[[2-Hydroxy-1-(hydroxymethyl)ethyl]carbamoyl]phenyl]-1-sulfamoyl-pyrrole-2-carboxylic acid] | 1060 | > 128 |
| CC(=O)N1CCC(c2ccn(S(N)(=O)=O)c2C(=O)O)C1 (centres unmarked) [Example 59, 3-[1-Acetylpyrrolidin-3-yl]-1-sulfamoyl-pyrrole-2-carboxylic acid] | 1610 | > 256 |
| NS(=O)(=O)n1ccc(C2CCN(C(=O)C3CNC3)CC2)c1C(=O)O [Example 74, 3-[1-(Azetidine-3-carbonyl)-4-piperidyl]-1-sulfamoyl-pyrrole-2-carboxylic acid] | 1550 | > 256 |
| NS(=O)(=O)n1ccc(-c2ccc(C(=O)NCC(=O)O)cc2)c1C(=O)O [Example 7, 3-[4-(Carboxymethyl-carbamoyl)phenyl]-1-sulfamoyl-pyrrole-2-carboxylic acid] | 650 | > 256 |
| N[C@@H](CO)C(=O)N1CCC(c2ccn(S(N)(=O)=O)c2C(=O)O)CC1 [Example 72, 3-[1-[(2S)-2-Amino-3-hydroxy-propanoyl]-4-piperidyl]-1-sulfamoyl-pyrrole-2-carboxylic acid] | 1570 | > 256 |
| CC(=O)N1CCC(Cc2ccn(S(N)(=O)=O)c2C(=O)O)CC1 [Example 62, 3-[(1-Acetyl-4-piperidyl)methyl]-1-sulfamoyl-pyrrole-2-carboxylic acid] | – | > 256 |
| NS(=O)(=O)n1ccc(CC2CCNCC2)c1C(=O)O [Example 57, 3-(4-Piperidylmethyl)-1-sulfamoyl-pyrrole-2-carboxylic acid hydrochloride] | – | > 256 |
| NS(=O)(=O)n1ccc(-c2ccc(C(=O)N[C@@H]3CCNC[C@H]3O)cc2)c1C(=O)O [Example 38, 3-[4-[[(3R,4R)-3-Hydroxy-4-piperidyl]carbamoyl]phenyl]-1-sulfamoyl-pyrrole-2-carboxylic acid] | 652 | > 256 |
| CCNCCNC(=O)c1ccc(-c2ccn(S(N)(=O)=O)c2C(=O)O)cc1 [Example 32, 3-[4-[2-(Ethylamino)ethylcarbamoyl]phenyl]-1-sulfamoyl-pyrrole-2-carboxylic acid] | 1060 | > 256 |
| N#CCNC(=O)c1ccc(-c2ccn(S(N)(=O)=O)c2C(=O)O)cc1 [Example 6, 3-[4-(Cyanomethyl-carbamoyl)phenyl]-1-sulfamoyl-pyrrole-2-carboxylic acid] | 843 | > 256 |
| NS(=O)(=O)n1ccc(-c2ccc(C(=O)NC[C@@H](O)CO)cc2)c1C(=O)O [Example 13, 3-[4-[[(2R)-2,3-Dihydroxypropyl]carbamoyl]phenyl]-1-sulfamoyl-pyrrole-2-carboxylic acid] | 566 | > 256 |
| NS(=O)(=O)n1ccc(C2CCN(C(=O)[C@@H]3CCCN3)CC2)c1C(=O)O [Example 73, 3-[1-[(2S)-Pyrrolidine-2 carbonyl]-4-piperidyl]-1-sulfamoyl-pyirole-2-carboxylic acid] | 568 | > 256 |
| NS(=O)(=O)n1ccc(-c2ccc(C(=O)NCCCOS(=O)(=O)O)cc2)c1C(=O)O [Example 54, 1-Sulfamoyl-3-[4-(3-sulfooxypropylcarbamoyl)phenyl]pyrrole-2-carboxylic acid] | – | > 256 |
| NCC(=O)N1CCCC(c2ccn(S(N)(=O)=O)c2C(=O)O)C1 (centres unmarked) [Example 63, 3-[1-(2-Aminoacetyl)-3-piperidyl]-1-sulfamoyl-pyrrole-2-carboxylic acid] | 1760 | > 256 |
| NS(=O)(=O)n1ccc(-c2ccc(C(=O)NC3CC3)cc2)c1C(=O)O [Example 3, 3-[4-(Cyclopropyl-carbamoyl)phenyl]-1-sulfamoyl-pyrrole-2-carboxylic acid] | – | > 256 |
| N=C(N)NCC(=O)N1CCC(c2ccn(S(N)(=O)=O)c2C(=O)O)CC1 [Example 83, 3-[1-(2-Guanidinoacetyl)-4-piperidyl]-1-sulfamoyl-pyrrole-2-carboxylic acid] | – | > 256 |

More lines, main results first:

| IC50 (NDM-1) [nM] | SMILES | CC50 at 24 h [1] [µg/mL] |
| --- | --- | --- |
| 200 | NS(=O)(=O)n1ccc(-c2ccc(C(=O)NC3CNC3)cc2)c1C(=O)O [Example 35, 3-[4-(Azetidin-3-ylcarbamoyl)phenyl]-1-sulfamoyl-pyrrole-2-carboxylic acid] | > 256 |
| 394 | NS(=O)(=O)n1ccc(-c2ccc(C(=O)NCCN3CCNC3=O)cc2)c1C(=O)O [Example 17, 3-[4-[2-(2-Oxoimidazolidin-1-yl)ethylcarbamoyl]phenyl]-1-sulfamoyl-pyrrole-2-carboxylic acid, ammonium salt] | > 256 |
| 377 | NCCNc1ccc(-c2ccn(S(N)(=O)=O)c2C(=O)O)cn1 [Example 95, 3-[6-(2-Aminoethylamino)-3-pyridyl]-1-sulfamoyl-pyrrole-2-carboxylic acid hydrochloride] | > 256 |
| 223 | CNC(=O)c1cccc(-c2ccn(S(N)(=O)=O)c2C(=O)O)c1 [Example 1, 3-[3-(Methylcarbamoyl)phenyl]-1-sulfamoyl-pyrrole-2-carboxylic acid] | > 256 |
| 374 | CC(=O)NCCNC(=O)c1ccc(-c2ccn(S(N)(=O)=O)c2C(=O)O)cc1 [Example 10, 3-[4-(2-Acetamidoethyl-carbamoyl)phenyl]-1-sulfamoyl-pyrrole-2-carboxylic acid] | > 256 |
| 111 | CN(C)C(=O)c1ccc(-c2ccn(S(N)(=O)=O)c2C(=O)O)cc1 [Example 2, 3-[4-(Dimethylcarbamoyl)phenyl]-1-sulfamoyl-pyrrole-2-carboxylic acid] | > 256 |
| 163 | NCCNC(=O)c1cccc(-c2ccn(S(N)(=O)=O)c2C(=O)O)c1 [Example 47, 3-[3-(2-Aminoethylcarbamoyl)phenyl]-1-sulfamoyl-pyrrole-2-carboxylic acid hydrochloride] | > 256 |
| 162 | NCC(=O)Nc1ccc(-c2ccn(S(N)(=O)=O)c2C(=O)O)cn1 [Example 93, 3-[6-[(2-Aminoacetyl)amino]-3-pyridyl]-1-sulfamoyl-pyrrole-2-carboxylic acid, sodium salt] | > 256 |
| 527 | NS(=O)(=O)n1ccc(-c2ccc(C(=O)NCCCO)cc2)c1C(=O)O [Example 11, 3-[4-(3-Hydroxypropyl-carbamoyl)phenyl]-1-sulfamoyl-pyrrole-2-carboxylic acid] | > 256 |
| 373 | CN(C)CCNC(=O)c1ccc(-c2ccn(S(N)(=O)=O)c2C(=O)O)cc1 [Example 9, 3-[4-[2-(Dimethylamino)ethylcarbamoyl]phenyl]-1-sulfamoyl-pyrrole-2-carboxylic acid] | > 256 |
| 405 | NC(=O)CNC(=O)c1ccc(-c2ccn(S(N)(=O)=O)c2C(=O)O)cc1 [Example 8, 3-[4-[(2-Amino-2-oxo-ethyl)carbamoyl]phenyl]-1-sulfamoyl-pyrrole-2-carboxylic acid] | > 128 |
| 433 | CC(=O)N1CCCC(c2ccn(S(N)(=O)=O)c2C(=O)O)C1 (centres unmarked) [Example 58, 3-[1-Acetyl-3-piperidyl]-1-sulfamoyl-pyrrole-2-carboxylic acid] | – |
